Experiment [1] has as its target T1, Estrogen receptor (Homo sapiens, UniProt P03372).
T1 sequence (P03372 whole entry): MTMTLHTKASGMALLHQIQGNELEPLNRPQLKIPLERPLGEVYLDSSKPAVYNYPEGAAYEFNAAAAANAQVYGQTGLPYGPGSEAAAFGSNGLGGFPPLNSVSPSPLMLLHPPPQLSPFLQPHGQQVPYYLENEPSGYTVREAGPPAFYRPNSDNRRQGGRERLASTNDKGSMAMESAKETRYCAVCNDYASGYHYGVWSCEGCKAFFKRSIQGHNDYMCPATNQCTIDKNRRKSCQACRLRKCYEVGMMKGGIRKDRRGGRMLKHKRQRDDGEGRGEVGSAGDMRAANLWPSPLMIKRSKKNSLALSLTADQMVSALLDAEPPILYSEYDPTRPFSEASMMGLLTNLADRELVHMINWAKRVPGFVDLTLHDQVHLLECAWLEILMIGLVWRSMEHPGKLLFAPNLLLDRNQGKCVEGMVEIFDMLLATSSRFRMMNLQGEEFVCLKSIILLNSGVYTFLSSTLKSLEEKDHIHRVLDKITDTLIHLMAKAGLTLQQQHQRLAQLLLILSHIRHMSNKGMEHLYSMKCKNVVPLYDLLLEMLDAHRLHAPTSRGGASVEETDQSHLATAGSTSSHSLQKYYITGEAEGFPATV
Description: biochemical.

Experiment [2] concerns the target Cytochrome P450 3A4 (Homo sapiens, UniProt P08684).

As a reminder, the IC50 is the concentration that inhibits the measured activity by half. High values mean a need for much substance, low ones inhibition by little substance. The term Ki denotes the dissociation constant of the complex between target and ligand, obtained from inhibition or displacement. Low values mean tighter binding, high ones weaker binding.

Sequence of Cytochrome P450 3A4 (P08684 whole entry): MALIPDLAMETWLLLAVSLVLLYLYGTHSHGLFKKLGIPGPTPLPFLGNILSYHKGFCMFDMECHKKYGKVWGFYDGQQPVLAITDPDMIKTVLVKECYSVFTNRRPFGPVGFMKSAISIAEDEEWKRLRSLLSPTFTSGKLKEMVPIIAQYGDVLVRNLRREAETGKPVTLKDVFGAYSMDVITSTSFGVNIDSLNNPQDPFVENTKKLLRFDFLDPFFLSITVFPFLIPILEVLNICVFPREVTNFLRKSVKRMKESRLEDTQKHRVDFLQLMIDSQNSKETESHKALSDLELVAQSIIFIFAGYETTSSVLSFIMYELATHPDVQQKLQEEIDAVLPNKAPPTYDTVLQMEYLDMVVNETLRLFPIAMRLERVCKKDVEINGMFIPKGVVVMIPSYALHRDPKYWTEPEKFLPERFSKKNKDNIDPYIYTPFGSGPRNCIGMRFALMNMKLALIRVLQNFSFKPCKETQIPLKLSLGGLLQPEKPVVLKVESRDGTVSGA

In experiment [1], `C[C@]12CC[C@@H]3c4ccc(OC(=O)c5ccccc5)cc4CC[C@H]3[C@@H]1CC[C@@H]2O` [ESTRADIOL BENZOATE] returned a 50% inhibitory concentration (IC50) of 0.065 µM and a Ki of 0.018 µM.
In experiment [1], `C#C[C@]1(O)CC[C@H]2[C@@H]3CCc4cc(OC)ccc4[C@H]3CC[C@@]21C` [MESTRANOL] had an IC50 of 0.018 µM and an inhibitory constant (Ki) of 0.00522 µM.
In experiment [2], `CC(C)(C(=O)c1cccnc1)c1cccnc1` [METYRAPONE] returned an IC50 of 0.8 µM.

The record behind these values is ChEMBL document CHEMBL1909046, “DrugMatrix in vitro pharmacology data”.
